How the values were obtained:
HPK1 = HPK1 (Homo sapiens (Human), UniProt Q92918); assay: HPK1 ADP-Glo enzyme assay; type: biochemical; details: HPK1 protein 5 nM, MBP and ATP substrate, ADP-Glo readout
Protocol: The buffer used in the enzyme assay contains 5 mM MOPS (pH=7.2), 2.5 mM β-Glycerol Phosphate, 0.4 mM EDTA, 1 mM EGTA, 0.05 mM DTT, 5 mM MgCl2. The compound was dissolved in 100% DMSO at the concentration was 10 mM. The initial concentration of the test was 5 uM, and ten data points were diluted by three-fold gradient, and each point was repeatedly measured twice. The HPK1 protein was purchased from Thermo (Cat. No. PV6355) and diluted to 2× stock solution at the concentration of 10 nM (the final concentration of the enzyme assay was 5 nM). 2.5 µl of 2×HPK1 protein was added to each well of the plate containing the test compound, centrifuged at 1000 rpm for 30 seconds, and then incubated at 25° C. for 15 minutes. MBP protein was purchased from Millipore (Cat. No. 13-110) and ATP was purchased from Sigma (Cat. No. A7699-5G) and the two were formulated into 2× working solutions at concentrations of 4 uM and 80 uM. Added 2.5 μl mixture of 2×MBP and ATP, centrifuged at 1000 rpm for 30 seconds, then incubated at 25° C. for 90 minutes. Then added 5 ul of ADP-Glo™ (Promega, Cat. No. V9102) to the assay plate and incubated […] at 25° C. for 60 minutes. Finally, 10 ul of the kinase assay reagent (Promega, Cat. No. V9102) was added to the assay plate, centrifuged at 1000 rpm for 30 seconds at 25° C. for 60 minutes, and the […] intensity was determined.

[1] = system: pSLP-76(Ser376) in Jurkat E6-1 cells; assay: Jurkat E6-1 pSLP-76(Ser376) HTRF experiment; type: cell-based; details: 4 hours compound incubation, anti-human CD3 antibody 20 minutes, Phospho-SLP-76 / SLP-76 HTRF
Protocol: Jurkat E6-1 cells were purchased from ATCC (Cat. No. TIB-152TM) and cultured overnight with RPMI 1640 containing 0.5% o FBS, after that 20 μL (10^7 cells/mL) cells were added to the experimental plates. Then the test compounds were diluted by three-fold gradient, and 10 different concentrations were prepared, and 5 μl of each was added to the experimental plate, and incubated for 4 hours in 37° C. incubator containing 5% CO2. Then 5 ul of 6× anti-human CD3 antibody (Biolegend, Cat. No. 300432) was added and incubated for 20 minutes in 37° C. incubator containing 5% CO2. Finally, the Phospho-SLP-76 and SLP-76 results were determined using the Cisbio Phospho-SLP-76 and SLP-76 HTRF assay kits (items: 63ADK076PEH and 63ADK077PEH, respectively). Based on the results, the IC50 of the compound is calculated.

Sequence of HPK1 (Q92918 whole entry): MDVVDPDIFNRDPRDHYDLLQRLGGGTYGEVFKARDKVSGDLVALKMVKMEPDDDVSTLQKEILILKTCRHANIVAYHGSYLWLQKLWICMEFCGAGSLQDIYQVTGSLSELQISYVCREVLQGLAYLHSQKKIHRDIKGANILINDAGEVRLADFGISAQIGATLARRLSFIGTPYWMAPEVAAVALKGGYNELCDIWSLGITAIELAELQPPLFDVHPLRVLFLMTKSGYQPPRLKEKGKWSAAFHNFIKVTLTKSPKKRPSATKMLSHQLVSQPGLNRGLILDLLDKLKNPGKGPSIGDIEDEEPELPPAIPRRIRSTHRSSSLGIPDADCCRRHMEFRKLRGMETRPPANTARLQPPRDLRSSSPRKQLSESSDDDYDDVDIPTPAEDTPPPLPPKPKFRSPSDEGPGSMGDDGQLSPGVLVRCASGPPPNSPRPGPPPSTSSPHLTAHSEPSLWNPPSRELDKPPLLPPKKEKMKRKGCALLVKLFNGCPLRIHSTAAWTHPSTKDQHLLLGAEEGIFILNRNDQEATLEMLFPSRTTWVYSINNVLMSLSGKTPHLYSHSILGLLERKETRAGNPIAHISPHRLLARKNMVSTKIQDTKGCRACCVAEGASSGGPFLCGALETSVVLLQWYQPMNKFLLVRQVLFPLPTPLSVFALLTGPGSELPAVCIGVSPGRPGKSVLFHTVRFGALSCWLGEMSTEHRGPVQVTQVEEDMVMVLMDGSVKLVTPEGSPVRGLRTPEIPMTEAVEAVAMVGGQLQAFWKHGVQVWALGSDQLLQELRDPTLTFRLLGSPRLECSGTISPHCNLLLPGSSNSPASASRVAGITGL

Structure (SMILES) | IC50 (HPK1) | IC50 [1]
CC1CN(C)CCN1c1ncc(-c2cnc(N)c(OCc3cccc(C#CC(C)(C)O)c3)c2)s1 (stereo not shown) [A63] | < 100 nM | < 1000 nM
C=CC(C)(O)C#Cc1cccc(COc2cc(-c3cnc(C4CCN(C)CC4)s3)cnc2N)c1 (stereo not shown) [A64] | < 100 nM | < 1000 nM

Continued, values first:

IC50 (HPK1) | IC50 [1] | Structure (SMILES)
< 100 nM | < 1000 nM | COc1ccc(C#CC(C)(C)O)cc1COc1cc(-c2cnc(C3CCN(C)CC3)s2)cnc1N [A59]
< 100 nM | < 1000 nM | Cc1ccc(C#CC(C)(C)O)cc1COc1cc(-c2cnc(C3CCN(C)CC3)s2)cnc1N [A60]
< 100 nM | < 1000 nM | Cc1cc(C#CC(C)(C)O)cc(COc2cc(-c3cnc(C4CCN(C)CC4)s3)cnc2N)c1 [A71]

— patent US20240300941A1, “HPK1 INHIBITORS, PREPARATION METHOD AND APPLICATION THEREOF” (ZHUHAI YUFAN BIOTECHNOLOGIES CO., LTD., priority 2018, published 2024)
